Source: patent US20250346593A1, “IMIDAZO(1,2-1)PYRIDINE DERIVATIVES AS RIPK2 INHIBITORS” (Interline Therapeutics, Inc., priority 2022, published 2025)
Where two headings read alike, the source gives them in different places.

Columns and labels:
[1] = test system: NF-κB pathway (SEAP) in THP1-Dual cells; assay: THP-1 Dual cell SEAP assay (L18-MDP stimulated); assay type: cell-based; settings: read-out: NFkB THP1 IC50
[2] = target: GST-RIPK2 fusion protein (human RIPK2 amino acids 1-310) (Homo sapiens (Human), UniProt O43353); assay: RIPK2 binding competition assay (TR-FRET, Tracer 199)
Chain of GST-RIPK2 fusion protein (human RIPK2 amino acids 1-310) (O43353 1-310): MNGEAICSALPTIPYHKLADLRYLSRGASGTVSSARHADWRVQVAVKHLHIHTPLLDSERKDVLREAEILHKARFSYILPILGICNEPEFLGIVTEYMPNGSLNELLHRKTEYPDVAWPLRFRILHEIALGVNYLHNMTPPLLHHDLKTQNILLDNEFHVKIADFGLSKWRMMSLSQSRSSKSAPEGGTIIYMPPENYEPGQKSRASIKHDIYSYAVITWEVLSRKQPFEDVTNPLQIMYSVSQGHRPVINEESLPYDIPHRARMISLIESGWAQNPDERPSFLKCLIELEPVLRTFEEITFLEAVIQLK

[3] = read-out: RIPK2 IC50, RIPK2 binding competition assay

Structure (SMILES)	IC50 ([1]; Homo sapiens, THP1-Dual)	IC50 [2, 3]	IC50 [2]	IC50 [1]
CNc1cc(-c2cnc3cc(OC)c(S(=O)(=O)C(C)(C)C)cn23)cc(F)n1 [Example 179, 4-(6-(tert-butylsulfonyl)-7-methoxyimidazo[1,2-a]pyridin-3-yl)-6-fluoro-N-methylpyridin-2-amine]	< 0.05 µM	< 0.001 µM		
COc1cc2ncc(-c3cc(F)nc(NC4CCC4)c3)n2cc1S(=O)(=O)C(C)(C)C [Example 180, 4-(6-(tert-butylsulfonyl)-7-methoxyimidazo[1,2-a]pyridin-3-yl)-N-cyclobutyl-6-fluoropyridin-2-amine]	0.05 to 0.25 µM	< 0.001 µM		
CCCNc1cc(-c2cnc3cc(OC)c(S(=O)(=O)C(C)(C)C)cn23)cc(F)n1 [Example 181, 4-(6-(tert-butylsulfonyl)-7-methoxyimidazo[1,2-a]pyridin-3-yl)-6-fluoro-N-propylpyridin-2-amine]	< 0.05 µM	< 0.001 µM		
COc1cc2ncc(-c3cc(F)nc(NCCCC(C)(C)O)c3)n2cc1S(=O)(=O)C(C)(C)C [Example 182, 5-((4-(6-(tert-butylsulfonyl)-7-methoxyimidazo[1,2-a]pyridin-3-yl)-6-fluoropyridin-2-yl)amino)-2-methylpentan-2-ol]	< 0.05 µM	< 0.001 µM		
COc1cc2ncc(-c3cc(F)nc(NCCCO)c3)n2cc1S(=O)(=O)C(C)(C)C [Example 183, 3-((4-(6-(tert-butylsulfonyl)-7-methoxyimidazo[1,2-a]pyridin-3-yl)-6-fluoropyridin-2-yl)amino)propan-1-ol]	< 0.05 µM	< 0.001 µM		
COc1cc2ncc(-c3cc(F)nc(NCc4ccc(=O)[nH]c4)c3)n2cc1S(=O)(=O)C(C)(C)C [Example 184, 5-(((4-(6-(tert-butylsulfonyl)-7-methoxyimidazo[1,2-a]pyridin-3-yl)-6-fluoropyridin-2-yl)amino)methyl) pyridin-2(1H)-one]	0.05 to 0.25 µM	< 0.001 µM		
COc1cc2ncc(-c3cc(F)nc(NCC4CCC(=O)NC4)c3)n2cc1S(=O)(=O)C(C)(C)C (stereo not drawn) [Example 185, 5-(((4-(6-(tert-butylsulfonyl)-7-methoxyimidazo[1,2-a]pyridin-3-yl)-6-fluoropyridin-2-yl)amino)methyl) piperidin-2-one]	< 0.05 µM	< 0.001 µM		
COc1cc2ncc(-c3cc(F)nc(N(C)C)c3)n2cc1S(=O)(=O)C(C)(C)C [Example 186, 4-(6-(tert-butylsulfonyl)-7-methoxyimidazo[1,2-a]pyridin-3-yl)-6-fluoro-N,N-dimethylpyridin-2-amine]	< 0.05 µM	< 0.001 µM		
COc1cc2ncc(-c3cc(F)nc(NCC4CCNC(=O)C4)c3)n2cc1S(=O)(=O)C(C)(C)C (stereo not drawn) [Example 188, 4-(((4-(6-(tert-butylsulfonyl)-7-methoxyimidazo[1,2-a]pyridin-3-yl)-6-fluoropyridin-2-yl)amino)methyl) piperidin-2-one]	< 0.05 µM	< 0.001 µM		
COc1cc2ncc(-c3cc(F)nc(N[C@H]4C[C@H](O)C4)c3)n2cc1S(=O)(=O)C(C)(C)C [Example 193, (1r,3r)-3-((4-(6-(tert-butylsulfonyl)-7-methoxyimidazo[1,2-a]pyridin-3-yl)-6-fluoropyridin-2-yl)amino)cyclobutan-1-ol]	< 0.05 µM	< 0.001 µM		
COc1cc2ncc(-c3cc(F)nc(NCCCN)c3)n2cc1S(=O)(=O)C(C)(C)C [Example 194, N1-(4-(6-(tert-butylsulfonyl)-7-methoxyimidazo[1,2-a]pyridin-3-yl)-6-fluoropyridin-2-yl)propane-1,3-diamine]	< 0.05 µM	< 0.001 µM		
COc1cc2ncc(-c3cc(F)nc(NC[C@@H](O)CO)c3)n2cc1S(=O)(=O)C(C)(C)C [Example 195, (R)-3-((4-(6-(tert-butylsulfonyl)-7-methoxyimidazo[1,2-a]pyridin-3-yl)-6-fluoropyridin-2-yl)amino)propane-1,2-diol]	< 0.05 µM	< 0.001 µM		
COc1cc2ncc(-c3cc(F)nc(NCc4ccn(C)c(=O)c4)c3)n2cc1S(=O)(=O)C(C)(C)C [Example 196, 4-(((4-(6-(tert-butylsulfonyl)-7-methoxyimidazo[1,2-a]pyridin-3-yl)-6-fluoropyridin-2-yl)amino)methyl)-1-methylpyridin-2(1H)-one]	< 0.05 µM		0.001 to 0.0025 µM	
COc1cc2ncc(-c3cc(F)nc(NCCC4(O)CC4)c3)n2cc1S(=O)(=O)C(C)(C)C [Example 198, 1-(2-((4-(6-(tert-butylsulfonyl)-7-methoxyimidazo[1,2-a]pyridin-3-yl)-6-fluoropyridin-2-yl)amino)ethyl)cyclo-propan-1-ol]	< 0.05 µM	< 0.001 µM		
COc1cc2ncc(-c3cc(F)nc(NCc4cc[nH]c(=O)c4)c3)n2cc1S(=O)(=O)C(C)(C)C [Example 199, 4-(((4-(6-(tert-butylsulfonyl)-7-methoxyimidazo[1,2-a]pyridin-3-yl)-6-fluoropyridin-2-yl)amino)methyl) pyridin-2(1H)-one]	0.05 to 0.25 µM		0.001 to 0.0025 µM	
COc1cc2ncc(-c3cc(F)nc(NCC4CCN(C)C(=O)C4)c3)n2cc1S(=O)(=O)C(C)(C)C (stereo not drawn) [Example 200, 4-(((4-(6-(tert-butylsulfonyl)-7-methoxyimidazo[1,2-a]pyridin-3-yl)-6-fluoropyridin-2-yl)amino)methyl)-1-methylpiperidin-2-one]	< 0.05 µM		0.001 to 0.0025 µM	
COc1cc2ncc(-c3cc(F)nc(NCC4(CO)CC4)c3)n2cc1S(=O)(=O)C(C)(C)C [Example 201, (1-(((4-(6-(tert-butylsulfonyl)-7-methoxyimidazo[1,2-a]pyridin-3-yl)-6-fluoropyridin-2-yl)amino)methyl)cyclo-propyl)methanol]	< 0.05 µM		0.001 to 0.0025 µM	
COc1cc2ncc(-c3cc(F)nc(NCCO)c3)n2cc1S(=O)(=O)C(C)(C)C [Example 202, 2-((4-(6-(tert-butylsulfonyl)-7-methoxyimidazo[1,2-a]pyridin-3-yl)-6-fluoropyridin-2-yl)amino)ethan-1-ol]	< 0.05 µM		0.001 to 0.0025 µM	
COc1cc2ncc(-c3cc(F)nc(NC[C@H](O)CO)c3)n2cc1S(=O)(=O)C(C)(C)C [Example 203, (S)-3-((4-(6-(tert-butylsulfonyl)-7-methoxyimidazo[1,2-a]pyridin-3-yl)-6-fluoropyridin-2-yl)amino)propane-1,2-diol]	0.05 to 0.25 µM		0.001 to 0.0025 µM	
COc1cc2ncc(-c3cc(F)nc(N[C@H]4CC[C@@H](O)CC4)c3)n2cc1S(=O)(=O)C(C)(C)C [Example 206, (1s,4s)-4-((4-(6-(tert-butylsulfonyl)-7-methoxyimidazo[1,2-a]pyridin-3-yl)-6-fluoropyridin-2-yl)amino)cyclohexan-1-ol]			0.001 to 0.0025 µM	< 0.05 µM
COc1cc2ncc(-c3cc(F)nc(N4CCC(O)CC4)c3)n2cc1S(=O)(=O)C(C)(C)C [Example 207, 1-(4-(6-(tert-butylsulfonyl)-7-methoxyimidazo[1,2-a]pyridin-3-yl)-6-fluoropyridin-2-yl)piperidin-4-ol]	< 0.05 µM		0.001 to 0.0025 µM	
COc1cc2ncc(-c3cc(F)nc(NCC4(O)CC4)c3)n2cc1S(=O)(=O)C(C)(C)C [Example 208, 1-(((4-(6-(tert-butylsulfonyl)-7-methoxyimidazo[1,2-a]pyridin-3-yl)-6-fluoropyridin-2-yl)amino)methyl) cyclopropan-1-ol]	< 0.05 µM		0.001 to 0.0025 µM	
COc1cc2ncc(-c3cc(F)nc(N(C)CCCO)c3)n2cc1S(=O)(=O)C(C)(C)C [Example 209, 3-((4-(6-(tert-butylsulfonyl)-7-methoxyimidazo[1,2-a]pyridin-3-yl)-6-fluoropyridin-2-yl)(methyl)amino) propan-1-ol]	0.05 to 0.25 µM		0.001 to 0.0025 µM	
COc1cc2ncc(-c3cc(F)nc(NCCN4CCCC4=O)c3)n2cc1S(=O)(=O)C(C)(C)C [Example 210, 1-(2-((4-(6-(tert-butylsulfonyl)-7-methoxyimidazo[1,2-a]pyridin-3-yl)-6-fluoropyridin-2-yl)amino)ethyl) pyrrolidin-2-one]	0.05 to 0.25 µM		0.001 to 0.0025 µM	
COc1cc2ncc(-c3cc(F)nc(N4CCOCC4)c3)n2cc1S(=O)(=O)C(C)(C)C [Example 211, 4-(4-(6-(tert-butylsulfonyl)-7-methoxyimidazo[1,2-a]pyridin-3-yl)-6-fluoropyridin-2-yl)morpholine]	0.25 to 1 µM		0.0025 to 0.02 µM	
COc1cc2ncc(-c3cc(F)nc(NC4CCOCC4)c3)n2cc1S(=O)(=O)C(C)(C)C [Example 212, 4-(6-(tert-butylsulfonyl)-7-methoxyimidazo[1,2-a]pyridin-3-yl)-6-fluoro-N-(tetrahydro-2H-pyran-4-yl)pyridin-2-amine]	> 1 µM		0.0025 to 0.02 µM	
COc1cc2ncc(-c3cc(F)nc(NCCC4(O)COC4)c3)n2cc1S(=O)(=O)C(C)(C)C [Example 213, 3-(2-((4-(6-(tert-butylsulfonyl)-7-methoxyimidazo[1,2-a]pyridin-3-yl)-6-fluoropyridin-2-yl)amino)ethyl)oxetan-3-ol]	0.25 to 1 µM		0.0025 to 0.02 µM	
COc1cc2ncc(-c3cc(F)c(C#N)c(NCCCO)c3)n2cc1S(=O)(=O)C(C)(C)C [Example 214, 4-(6-(tert-butylsulfonyl)-7-methoxyimidazo[1,2-a]pyridin-3-yl)-2-fluoro-6-((3-hydroxypropyl)amino) benzonitrile]	0.05 to 0.25 µM		0.0025 to 0.02 µM	
COc1cc2ncc(-c3cc(N)nc(F)c3)n2cc1S(=O)(=O)C(C)(C)C [Example 215, 4-(6-(tert-butylsulfonyl)-7-methoxyimidazo[1,2-a]pyridin-3-yl)-6-fluoropyridin-2-amine]	< 0.05 µM	< 0.001 µM		
COc1ccc(CNc2cc(-c3cnc4cc(OC)c(S(=O)(=O)C(C)(C)C)cn34)cc(F)n2)cc1 [Example 216]	0.05 to 0.25 µM	< 0.001 µM		
